Results from patent US6831106B1, “Vitamin D analogues” (Galderma Research & Development, S.N.C., priority 1999, dated 2004).

What follows are molecules tested on seborrhoeic scalp (assay: antiseboric lotion applied to a seborrhoeic scalp). Details: lotion with 0.030 g compound per 100 g, applied twice a day, within a period of 2 to 6 weeks.
Assay type: in vivo

Compound	improvement of seborrhoeic scalp
CCCC(O)(CCC)c1ccc(-c2cccc(OCc3ccc(CO)c(CO)c3)c2C)c(C)c1 [Example 12, {2-Hydroxymethyl-4-[4′-(1-hydroxy-1-propylbutyl)-2,2′-dimethylbiphenyl-3-yloxymethyl]phenyl}methanol]	significant improvement

These molecules were tested against T1, human VDR receptor (Homo sapiens, UniProt P11473) (assay: VDR agonist activity, co-transfection of human VDR expression vector and p240Hase-CAT reporter in HeLa cells). Details: HeLa cell line, CAT reporter under rat 24-hydroxylase promoter, 18 hours treatment, ELISA; read-out: AC 50 (dose required to achieve 50% of the maximum activity of the product).
T1 construct: expressed in transfected cells; host or cells: HeLa
T1 sequence (P11473 1-427): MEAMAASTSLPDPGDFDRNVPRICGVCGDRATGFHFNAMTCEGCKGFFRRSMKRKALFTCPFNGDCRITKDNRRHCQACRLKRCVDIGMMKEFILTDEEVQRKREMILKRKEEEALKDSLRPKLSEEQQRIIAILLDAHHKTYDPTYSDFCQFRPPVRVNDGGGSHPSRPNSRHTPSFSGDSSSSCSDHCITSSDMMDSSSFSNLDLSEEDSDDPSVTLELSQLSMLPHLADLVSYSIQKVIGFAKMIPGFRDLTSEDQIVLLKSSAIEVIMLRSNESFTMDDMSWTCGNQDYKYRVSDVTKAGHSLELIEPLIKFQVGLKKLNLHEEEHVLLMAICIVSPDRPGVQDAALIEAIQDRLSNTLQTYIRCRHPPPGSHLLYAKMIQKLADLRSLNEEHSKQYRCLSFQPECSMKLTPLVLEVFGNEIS
Assay type: cell-based
Protocol: By way of example, the VDR agonist activity can be tested on the HeLa cell line by co-transfection with an expression vector for the human VDR receptor and the reporter plasmid p240Hase-CAT which contains the region −1399 to +76 of rat 24-hydroxylase promoter, cloned upstream of the frame encoding the chloramphenicol-acetyl-transferase (CAT)′gene. 18 hours after co-transfection, the test product is added to the medium. 18 hours after treatment, assay of the CAT activity in the cell lysates is carried out by an ELISA test. The results are expressed as percentages of the effect normally observed with 10^−7M calcitriol.
The agonist activity can also be characterized in this co-transfection system, by determining the dose required to reach 50% of the maximum activity of the product (AC50).
The VDR agonist activity was tested on the HeLa cell line, by co-transfection of an expression vector of the human VDR receptor and of the reporter plasmid p240Hase-CAT which contains the region −1399 to +76 of the rat 24-hydroxylase promoter, cloned upstream of the coding frame of the chloramphenicol-acetyl-transferase (CAT) gene. 18 hours after co-transfection, the test product is added to the medium. After treatment for 18 hours, the CAT activity of the cell lysates is assayed by an ELISA test. The results are expressed as a percentage of the effect normally observed with 10^−7 M of calcitriol.
The agonist activity was characterized in this co-transfection system by determining the dose required to achieve 50% of the maximum activity of the product (AC50).

Compound	AC50 [nM]
CCC(O)(CC)c1ccc(-c2cccc(OCc3ccc(CO)c(CO)c3)c2)c(C)c1 [Example 3, {5-4′-[(1-Ethyl-1-hydroxypropyl)-2′-methylbiphenyl-3-yloxymethyl]-2-hydroxymethylphenyl}methanol]	470
CCC(O)(CC)c1ccc(-c2cccc(SCc3ccc(CO)c(CO)c3)c2)c(C)c1 [Example 10, {4-[4′-(1-Ethyl-1-hydroxypropyl)-2′-methylbiphenyl-3-ylsulphanylmethyl]-2-hydroxymethylphenyl}methanol]	2040
CCC(O)(CC)c1ccc(-c2cccc(OCc3ccc(CO)c(CO)c3)c2C)c(C)c1 [Example 11, {4-[4′-(1-Ethyl-1-hydroxypropl)-2,2′-dimethylbiphenyl-3-yloxymethyl]-2-hydroxymethylphenyl}methanol]	291
CCC(O)(CC)c1ccc(-c2cc(OCc3ccc(CO)c(CO)c3)ccc2C)c(C)c1 [Example 16, {4-[4′-(1-Ethyl-1-hydroxypropyl)-6,2′-dimethylbiphenyl-3-yloxymethyl]-2-hydroxymethylphenyl}methanol]	46
CCC(O)(CC)c1cc(C)c(-c2cc(OCc3ccc(CO)c(CO)c3)ccc2C)c(C)c1 [Example 17, {4-[4′-(1-Ethyl-1-hydroxypropyl)-6,2′,6′-trimethylbiphenyl-3-yloxymethyl]-2-hydroxymethylphenyl}methanol]	194
CCC(O)(CC)c1ccc(-c2cc(OCc3ccc(CO)c(CO)c3)ccc2C)cc1 [Example 18, {4-[4′-(1-Ethyl-1-hydroxypropyl)-6-methylbiphenyl-3-yloxymethyl]-2-hydroxymethylphenyl}methanol]	133
CCC(O)(CC)c1ccc(-c2cccc(COc3ccc(CO)c(CO)c3)c2)c(C)c1 [Example 22, {4-[4′-(1-Ethyl-1-hydroxypropyl)-2′-methylbiphenyl-3-ylmethoxy]-2-hydroxymethylphenyl}methanol]	451
